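48-hour exposure; five concentrations; linearly interpolated endpoints. At the TGI there is no net growth.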 Where only a bound is given, the exact number is not on record here.

One assay concerns M19-MEL melanoma. As to the kind of experiment: NCI tumour cell line growth inhibition, 48 h.
In turn, `CCc1cc(Cc2cc(CC)c(NC(=O)C(=O)Cc3ccccn3)c(CC)c2Cl)c(Cl)c(CC)c1NC(=O)C(=O)Cc1ccccn1` came in with a TGI greater than 100 µM.
On the same count and under the same terms, with `CC(C)OP(=O)(OC(C)C)C(=NCCN=C(NNc1ccc([N+](=O)[O-])cc1)P(=O)(OC(C)C)OC(C)C)NNc1ccc([N+](=O)[O-])cc1` the figure was greater than 100 µM.
The same measure, in the same setting: with `COC(OC)C(C)CC(=O)N(C)C` (stereo not given) the figure was greater than 100 µM.
Same read-out and setting: with `O=S1(=O)OCCOS(=O)(=O)C1Br` the figure was greater than 100 µM; with `CC(C)=Cc1cc(C(=O)Nc2ccc(Cl)c(Cl)c2)nc(N)n1`, greater than 100 µM.
The molecule `C#CC1(O)CCC2C3CCc4cc(Oc5nc(F)nc(-c6c7ccccc7c7sc8ccccc8n67)n5)ccc4C3CC[C@@]21C` (stereo not given in full) registered a TGI greater than 100 µM.
On to `CC(=O)/C(=C\c1cccc([N+](=O)[O-])c1)C(=O)Nc1ccccc1C`, for which the TGI is greater than 100 µM.
On the same count and under the same terms, with `Clc1ccc(C(c2ccc(Cl)cc2)c2ccccn2)cc1` the figure was greater than 100 µM; with `C[Si](C)(C)C1(Sc2ccccc2)SCCCS1`, greater than 100 µM.
Same read-out and setting: next, `CC(C)(C)OC(=O)N[C@H]1CC2(C=C(Cl)C(=O)C(Cl)=C2)OC1=O`: 30.9 µM; `O=c1cc(-c2ccccc2)oc2cc(OCCCOc3ccc4c(=O)cc(-c5ccccc5)oc4c3)ccc12`: greater than 100 µM.

In a further assay the test system is MDA-N. As to the kind of experiment: NCI tumour cell line growth inhibition, 48 h.
`NC1(C(=O)OCc2ccccc2)CCCC1` showed a TGI of 49.6 µM.
For the molecule `CSc1nc(NC2OCC(OC(C)=O)C(OC(C)=O)C2OC(C)=O)c(N=CC=Nc2c(NC3OCC(OC(C)=O)C(OC(C)=O)C3OC(C)=O)nc(SC)[nH]c2=O)c(=O)[nH]1` (stereo not given), the TGI was greater than 100 µM.
`COc1cc(C2c3cc4c(cc3OC(C)(O)C2C)OCO4)cc(OC)c1OC` (stereo not given) came in with a TGI of 0.258 µM.
The same measure, in the same setting: next, `N#CC(C#N)=CNC(N)=S`: greater than 100 µM; `COc1cc(OC)cc(-c2cc(=O)c3c(OC)c(OC)c(OC)c(OC)c3o2)c1`: greater than 100 µM; `COC(=O)C1=C(C)NC(C)=C(C(=O)OCCCN2CCC(c3ccccc3)(c3ccccc3)CC2)C1c1cccc([N+](=O)[O-])c1` (stereo not given): 3.89 µM.
On the same count and under the same terms, next, `CCCCCCCCC/C=C1\CCC(CN2CCOCC2)C1=O` (stereo not given): 12.7 µM; `N=Nc1c(OC(=O)Nc2cccc(Cl)c2)[nH]c2ccccc12`: 10.1 µM.
As to `CC1(C)C2CCC(=O)C1CC2` (stereo not given), the TGI is greater than 100 µM.
On the same count and under the same terms, with `C=C(Br)C(C)(Br)CCC(Br)C(C)(C)Cl` (stereo not given) the figure was 39.8 µM.
The molecule `NS(=O)(=O)c1cc(Br)c(N=Nc2ccc(O)c3ncccc23)c(Br)c1` returned a TGI greater than 100 µM.
In turn, `OCc1ccc(-c2ccc(-c3ccc(CO)s3)o2)s1` returned a TGI of 39.6 µM.
Still for that read-out and setting: next, `Cc1ccccc1S(=O)(=O)OC1NS(=O)(=O)c2ccccc21` (stereo not given): greater than 100 µM; `COc1cc(NCc2ccc3oc(=O)c(-c4ccccc4)nc3c2)cc(OC)c1OC`: greater than 10 µM.
Regarding `Cc1ccc(S(=O)(=O)Nc2ccccc2C(=O)c2ccc(C)c(C)c2)cc1`, the TGI was greater than 100 µM.
`COC1=CC(=O)C(C2CC(=O)c3c(O)cc(O)cc3O2)=CC1=O` (stereo not given) yielded a TGI of 29.7 µM.
Regarding `CC(C)C(C)/C=C\C(C)C1CCC2C3=CC=C4CC(O)CCC4(C)C3CCC21C` (stereo not given), the TGI is greater than 70.5 µM.
`OC(c1nc2ccccc2[nH]1)C(O)C(O)C(O)c1nc2ccccc2[nH]1` (stereo not given): the TGI is greater than 100 µM.
Still for that read-out and setting: with `CCOC(=O)c1cc2nc3ccccc3c(=O)n2c2ccccc12` the figure was greater than 10 µM; with `Cc1cc(O)c(/C=N/C(=S)NCc2ccccc2)c(=O)o1`, greater than 100 µM; with `CC(C)(C)OC(=O)N[C@H]1CC2(C=C(Cl)C(=O)C(Cl)=C2)OC1=O`, 35.5 µM.

In the next assay the test system is P388 leukemia. Put plainly: NCI tumour cell line growth inhibition, 48 h.
Molecule `Nc1ncnc2c1nnn2C1OC(CO)C(O)C1O` (stereo not given) showed a TGI of 16.1 µM.

For a further assay, the system named is P388/ADR leukemia. As to the kind of experiment: NCI tumour cell line growth inhibition, 48 h.
Regarding `Nc1ncnc2c1nnn2C1OC(CO)C(O)C1O` (stereo not given), the TGI turned out to be 26.7 µM.

In a further assay the test system is RXF-631 renal. Put plainly: NCI tumour cell line growth inhibition, 48 h.
`CCOC(=O)NC(=O)c1cn(CCCO)c(=O)[nH]c1=O` displayed a TGI greater than 100 µM.
`COc1ccc(S(=O)(=O)NNS(C)(=O)=O)cc1` had a TGI greater than 100 µM.
On the same count and under the same terms, with `CC(=O)OC1COC(n2ccc3cc(Br)c([N+](=O)[O-])cc32)C(OC(C)=O)C1OC(C)=O` (stereo not given) the figure was 58.8 µM; with `CSc1nc(NC2OCC(OC(C)=O)C(OC(C)=O)C2OC(C)=O)c(N=CC=Nc2c(NC3OCC(OC(C)=O)C(OC(C)=O)C3OC(C)=O)nc(SC)[nH]c2=O)c(=O)[nH]1` (stereo not given), greater than 100 µM; with `CCCCCCCCC/C=C1\CCC(CN2CCOCC2)C1=O` (stereo not given), 18.2 µM.
The same measure, in the same setting: with `C/C(=N\NC(=S)NC(CCC(=O)O)C(=O)O)c1ccccn1` (stereo not given) the figure was greater than 100 µM; with `O=C(/C=C\c1ccc(Cl)c(Cl)c1)c1ccc(Cl)cc1Cl`, greater than 100 µM; with `CCOC(=O)C(=C=C=C(c1ccccc1)c1ccccc1)C(=O)OCC`, 77 µM.
Still for that read-out and setting: with `Cn1c2ccccc2c2cc(-c3ccccc3)c3c(c21)C(=O)c1ccccc1C3=O` the figure was greater than 100 µM; with `c1ccc(COc2cccc3ccc[n+](Cc4ccccc4)c23)cc1`, greater than 100 µM; with `CN(C)c1ccc(/C=C(\NC(=O)c2ccccc2)c2nc3ncncc3[nH]2)cc1`, greater than 100 µM.
`CC1=CC(O)(c2ccc(-c3ccccc3Cl)cc2)OC1=O` (stereo not given) showed a TGI greater than 100 µM.
`O=S1(=O)OCCOS(=O)(=O)C1Br` came in with a TGI greater than 100 µM.
With `CC(C)=Cc1cc(C(=O)Nc2ccc(Cl)c(Cl)c2)nc(N)n1`, the TGI is greater than 100 µM.
On the same count and under the same terms, with `CC(C)(C)OC(=O)N[C@H]1CC2(C=C(Cl)C(=O)C(Cl)=C2)OC1=O` the figure was 30.5 µM.

In another assay the test system is SN12K1 renal. Put plainly: NCI tumour cell line growth inhibition, 48 h.
Consider `Nc1ncnc2c1nnn2C1OC(CO)C(O)C1O` (stereo not given), for which the TGI came out at 9.58 µM.

Values taken from PubChem BioAssay (NCI).
